Source: publication PMC6893741, “Docosahexaenoic Acid Inhibits PTP1B Phosphatase and the Viability of MCF-7 Breast Cancer Cells” (Nutrients, 2019)

Target: T1, Protein tyrosine phosphatase 1B (PTP1B) (Homo sapiens, UniProt P18031)
T1 construct: gene PTPN1; recombinant PTP1B
T1 sequence (P18031 1-435): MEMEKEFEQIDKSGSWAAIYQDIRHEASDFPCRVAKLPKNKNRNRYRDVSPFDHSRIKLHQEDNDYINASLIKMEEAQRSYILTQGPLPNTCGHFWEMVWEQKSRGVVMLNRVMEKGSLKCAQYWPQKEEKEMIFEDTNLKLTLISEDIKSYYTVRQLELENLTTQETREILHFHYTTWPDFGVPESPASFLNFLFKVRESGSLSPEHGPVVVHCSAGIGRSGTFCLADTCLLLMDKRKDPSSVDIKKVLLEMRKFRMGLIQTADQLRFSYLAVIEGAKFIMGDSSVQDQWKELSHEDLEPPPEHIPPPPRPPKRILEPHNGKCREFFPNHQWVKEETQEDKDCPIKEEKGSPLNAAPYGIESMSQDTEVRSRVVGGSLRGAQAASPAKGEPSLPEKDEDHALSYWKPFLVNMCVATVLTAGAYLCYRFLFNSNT
Assay: recombinant PTP1B activity assay with pNPP, absorbance at […] nm, […] min incubation
Assay type: biochemical

## CC/C=C\C/C=C\C/C=C\C/C=C\C/C=C\C/C=C\CCC(=O)O [DHA, docosahexaenoic acid]
  IC50: 174 ± 25.5 µM
